The values below are quoted from earlier work in patent US20040081632A1, “Novel antiperspirant/deodorant active for no white residue sticks and soft solids” (priority 2002, published 2004).

The conditions of this series: neat organic solvent.

As to `COC(C)CCO` (stereo not drawn) [3 methoxy butanol], the RI is 1.411.

With `CC(O)COC(C)COC(C)CO` (stereo not drawn) [tripropylene glycol], the RI was 1.454.

Take 1-methyl 2-propanol: the RI was 1.403.

With `CC(O)CO` (stereo not drawn) [propylene glycol], the RI was 1.430.

For the compound `CCOCCO` [2 ethoxy ethanol], the RI is 1.407.

On to `COCCO` [2 methoxy ethanol], for which the RI was 1.402.
